Literature values, collected in patent US20260183237A1, “NANOEMULSION WITHOUT PROPYLENE GLYCOL” (BIOFRONTERA, INC., priority 2023, published 2026).

- octanol-water partition coefficient (logP): around −3
SMILES: NCC(=O)CCC(=O)O [5-aminolevulinic acid]
